Test results from the supplement of paper PMC10307832.

Compound: CN(NC(=O)CC(=O)NN(C)C(=S)c1ccccc1)C(=S)c1ccccc1 [Elesclomol] + CC(=O)c1c(C)c2cnc(Nc3ccc(N4CCNCC4)cn3)nc2n(C2CCCC2)c1=O [Palbociclib] (partner 0.5 µM)
Assay: relative viability (nuclei count vs DMSO), 5 days (fraction); higher = more cells survive
Method in brief: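 Cells from lung cancer lines were seeded into 1536-well plates and, one day later, dosed by pin tool. Treatments were either a single drug or a fixed dose of an anchor drug with five library-drug doses (not always all listed) in √10 steps. After 5 days, nuclei were stained in a one-step fixation (final 0.05% Triton X-100, 1% formaldehyde, 1 ug/ml Hoechst) and counted on 4× images, and relative viability is the treated-to-vehicle nuclei ratio, as the median of duplicate plates.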

Row | Cell Line | relative viability (first compound 0.003162 µM) | relative viability (first compound 0.01 µM) | relative viability (first compound 0.03162 µM) | relative viability (first compound 0.1 µM)
1 | 201T | 0.349 | 0.358 | 0.354 | 0.372
2 | A-427 | 0.498 | 0.455 | 0.211 | 0.178
3 | ABC-1 | 0.327 | 0.265 | 0.288 | 0.258
4 | BEN | 0.46 | 0.388 | 0.39 | 0.304
5 | CAL-12T | 0.435 | 0.118 | 0.0519 | 0.0654
6 | COR-L23 | 0.276 | 0.17 | 0.153 | 0.115
7 | COR-L 105 | 0.397 | 0.358 | 0.317 | 0.291
8 | ChaGo-K-1 | 0.875 | 0.882 | 0.568 | 0.154
9 | EKVX | 0.334 | 0.155 | 0.143 | 0.105
10 | EMC-BAC-2 | 0.514 | 0.369 | 0.455 | 0.352
11 | EPLC-272H | 0.352 | 0.117 | 0.118 | 0.112
12 | H3255 | 0.331 | 0.309 | 0.285 | 0.254
13 | HARA | 0.239 | 0.278 | 0.284 | 0.233
14 | HCC-15 | 0.714 | 0.629 | 0.518 | 0.12
15 | HCC-44 | 0.975 | 0.895 | 0.939 | 0.952
16 | HCC-78 | 0.493 | 0.377 | 0.489 | 0.466
17 | HCC-366 | 0.393 | 0.393 | 0.0812 | 0.0176
18 | HCC-827 | 0.471 | 0.436 | 0.428 | 0.626
19 | HOP-62 | 0.461 | 0.333 | 0.305 | 0.144
20 | LC-2-ad | 0.482 | 0.409 | 0.223 | 0.193
21 | LCLC-97TM1 | 0.189 | 0.193 | 0.277 | 0.129
22 | LCLC-103H | 0.482 | 0.481 | 0.471 | 0.517
23 | LK-2 |  | 0.717 | 0.695 | 0.0756
24 | LOU-NH91 | 0.518 | 0.566 | 0.535 | 0.508

Row | Cell Line | relative viability (first compound 0.003162 µM) | relative viability (first compound 0.01 µM) | relative viability (first compound 0.03162 µM) | relative viability (first compound 0.1 µM)
25 | LU99A | 0.394 | 0.269 | 0.408 | 0.179
26 | LXF-289 | 0.627 | 0.561 | 0.548 | 0.36
27 | NCI-H23 | 0.531 | 0.413 | 0.269 | 0.127
28 | NCI-H322M | 0.387 | 0.381 | 0.331 | 0.246
29 | NCI-H358 | 0.132 | 0.105 | 0.0798 | 0.0844
30 | NCI-H441 | 0.253 | 0.22 | 0.126 | 0.081
31 | NCI-H460 | 0.185 | 0.138 | 0.0179 | 0.0102
32 | NCI-H520 | 0.254 | 0.213 | 0.183 | 0.0937
33 | NCI-H522 | 1.16 | 0.819 | 0.894 | 0.632
34 | NCI-H647 | 0.309 | 0.257 | 0.128 | 0.0311
35 | NCI-H650 | 0.328 | 0.292 | 0.174 | 0.133
36 | NCI-H661 | 0.408 | 0.337 | 0.235 | 0.181
37 | NCI-H727 | 0.633 | 0.494 | 0.676 | 0.497
38 | NCI-H838 | 0.229 | 0.189 | 0.247 | 0.143
39 | NCI-H1355 | 0.429 | 0.344 | 0.3 | 0.171
40 | NCI-H1395 | 0.659 | 0.36 | 0.309 | 0.219
41 | NCI-H1437 | 0.3 | 0.247 | 0.257 | 0.208
42 | NCI-H1650 | 0.234 | 0.155 | 0.104 | 0.0955
43 | NCI-H1651 | 0.509 | 0.516 | 0.532 | 0.341
44 | NCI-H1666 | 0.682 | 0.563 | 0.575 | 0.583
45 | NCI-H1734 | 0.334 | 0.326 | 0.132 | 0.105
46 | NCI-H1755 | 0.483 | 0.429 | 0.462 | 0.393
47 | NCI-H1792 | 0.544 | 0.569 | 0.607 | 0.662
48 | NCI-H1793 | 0.3 | 0.297 | 0.247 | 0.123

Row | Cell Line | relative viability (first compound 0.003162 µM) | relative viability (first compound 0.01 µM) | relative viability (first compound 0.03162 µM) | relative viability (first compound 0.1 µM)
49 | NCI-H1915 | 0.517 | 0.381 | 0.489 | 0.206
50 | NCI-H1944 | 0.328 | 0.328 | 0.347 | 0.227
51 | NCI-H1975 | 0.579 | 0.263 | 0.205 | 0.0984
52 | NCI-H1993 | 0.712 | 0.564 | 0.456 | 0.433
53 | NCI-H2009 | 0.224 | 0.172 | 0.116 | 0.0798
54 | NCI-H2023 | 0.355 | 0.124 | 0.0385 | 0.0417
55 | NCI-H2085 | 0.459 | 0.423 | 0.333 | 0.255
56 | NCI-H2087 | 0.222 | 0.188 | 0.176 | 0.0806
57 | NCI-H2126 | 0.341 | 0.357 | 0.352 | 0.309
58 | NCI-H2170 | 0.396 | 0.358 | 0.358 | 0.29
59 | NCI-H2228 | 0.676 | 0.513 | 0.225 | 0.0449
60 | NCI-H2347 | 0.401 | 0.441 | 0.328 | 0.321
61 | NCI-H2405 | 0.507 | 0.395 | 0.303 | 0.28
62 | NCI-H3122 | 0.161 | 0.205 | 0.167 | 0.105
63 | PC-3 [JPC-3] | 0.609 | 0.495 | 0.456 | 0.411
64 | PC-14 | 0.317 | 0.0274 | 0.02 | 0.0209
65 | RERF-LC-KJ | 0.911 | 0.714 | 0.581 | 0.288
66 | SK-LU-1 | 0.35 | 0.305 | 0.344 | 0.388
67 | SK-MES-1 | 0.325 | 0.291 | 0.221 | 0.184
68 | SW 900 | 0.531 | 0.453 | 0.168 | 0.0979
69 | SW 1573 | 0.269 | 0.104 | 0.0985 | 0.0326
70 | UMC-11 | 0.321 | 0.275 | 0.29 | 0.249
